The target of one assay is PTGER2 (EP2) (Homo sapiens, UniProt P43116). The assay is described as follows: cell-based.
For the next assay, the target named is PTRGER4 (EP4) (Homo sapiens, UniProt P35408). Briefly: cell-based.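 Also: assay plate preincubated 15 min at 37 °C, after which PGE2 was added at 20 nM final and incubation continued 120 min at 37 °C.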

This is an account of results in patent US11712438B2, “Phenyl derivatives as PGE2 receptor modulators” (IDORSIA PHARMACEUTICALS LTD, priority 2017, dated 2023).

Sequence of PTRGER4 (EP4) (P35408 whole entry): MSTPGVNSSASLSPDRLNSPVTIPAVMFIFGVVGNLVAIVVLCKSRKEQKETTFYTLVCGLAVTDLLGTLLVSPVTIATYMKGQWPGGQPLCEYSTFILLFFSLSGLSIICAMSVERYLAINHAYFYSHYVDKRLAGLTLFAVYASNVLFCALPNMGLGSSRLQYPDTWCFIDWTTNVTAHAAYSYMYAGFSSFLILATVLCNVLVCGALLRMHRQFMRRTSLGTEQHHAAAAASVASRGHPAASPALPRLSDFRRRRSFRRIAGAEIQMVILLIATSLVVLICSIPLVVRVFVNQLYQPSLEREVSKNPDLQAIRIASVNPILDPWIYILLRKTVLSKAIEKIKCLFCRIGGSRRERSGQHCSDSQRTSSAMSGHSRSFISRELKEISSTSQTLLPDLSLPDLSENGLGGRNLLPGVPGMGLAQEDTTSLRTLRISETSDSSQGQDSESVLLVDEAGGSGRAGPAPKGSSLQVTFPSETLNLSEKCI
Sequence of PTGER2 (EP2) (P43116 whole entry): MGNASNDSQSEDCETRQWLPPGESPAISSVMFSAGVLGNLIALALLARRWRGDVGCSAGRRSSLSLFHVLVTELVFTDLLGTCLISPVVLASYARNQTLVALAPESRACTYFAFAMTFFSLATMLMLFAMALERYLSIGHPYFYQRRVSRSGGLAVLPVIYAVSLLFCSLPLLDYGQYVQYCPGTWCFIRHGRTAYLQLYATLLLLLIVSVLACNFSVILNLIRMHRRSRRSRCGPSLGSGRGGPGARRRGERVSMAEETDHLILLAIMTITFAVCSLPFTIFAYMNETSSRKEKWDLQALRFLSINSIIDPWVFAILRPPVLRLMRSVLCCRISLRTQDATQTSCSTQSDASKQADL
From the text for PTGER2 (EP2): (§1) The assay is using the PathHunter™ HEK 293 PTGER2 and PTGER4 b-arrestin cell lines from DiscoverX. The system is based on the Enzyme Fragment Complementation Technology. Two complementing fragments of the b-galactosidase enzyme are expressed within stably transfected cells. The larger portion of b-gal, termed EA for Enzyme Acceptor, is fused to the C-terminus of b-arrestin 2. The smaller fragment, termed ProLink™ tag, is fused to PTGER2 (EP2) or PTRGER4 (EP4) at the C-terminus. Upon activation, b-arrestin is recruited which forces the interaction of ProLink and EA, allowing complementation of the two fragments of b-gal and the formation of a functional enzyme which is capable of hydrolysing the substrate and generating a chemiluminescent signal.
The HEK 293 PTGER2 b-arrestin cells (DiscoverX 93-021-4C1) are detached from culture dishes with a cell dissociation buffer (Invitrogen, 13151-014), and collected in growing medium (GM: DMEM+Glutamax-I (Invitrogen 32430)/10% FCS, 1% Penicilin/streptomycin). 5000 cells per well of a 384 well plate (white with white bottom Greiner 781080) are seeded in 20 ul per well of GM. Plate is incubated at 37° C., 5% CO2 for 24 hours.
(§2) Stock solutions of test compounds are made at a concentration of 10 mM in DMSO, and serially diluted in DMSO to concentrations required for inhibition dose response curves (tested concentration range 10 μM-2 nM or 1 μM-0.2 nM).
PGE2 (Cayman 14010, stock solution: 10 mM in DMSO) is used as agonist at 5 μM final concentration, corresponding to EC80.
Five microliters of diluted compounds are transferred into the assay plate. Plate is pre-incubated 15 minutes at 37° C. Then five microliters of PGE2 (final conc. 5 μM) are transferred into the assay plate. Plate is incubated 120 minutes at 37° C.
Twelve μl of reagent are transferred to the assay plate and incubate for 1 hour at room temperature in the dark. Luminescence counts are read on a BMG Fluostar Optima reader according to manufacturer's instructions.
(§3) For each compound concentration calculate of the percentage of activity compared to DMSO control value as average±STDEV. (each concentration is measured in duplicate)
(§4) When compounds were measured multiple times, mean values are given.
From the text for PTRGER4 (EP4): as §1
The HEK 293 PTGER4 b-arrestin cells (DiscoverX 93-030-4C1) are detached from culture dishes with a cell dissociation buffer (Invitrogen, 13151-014), and collected in growing medium (GM: DMEM+Glutamax-I (Invitrogen 32430)/10% FCS, 1% Penicilin/streptomycin). 5000 cells per well of a 384 well plate (white with white bottom Greiner 781080) are seeded in 20 ul per well of GM. Plate is incubated at 37° C., 5% CO2 for 24 hours.
as §2
PGE2 (Cayman 14010, stock solution: 100 uM in DMSO) is used as agonist at 20 nM final concentration, corresponding to EC80.
Five microliters of diluted compounds are transferred into the assay plate. Plate is pre-incubated 15 minutes at 37° C. Then five microliters of PGE2 (final conc. 20 nM) are transferred into the assay plate. Plate is incubated 120 minutes at 37° C.
Twelve μl of reagent are transferred to the assay plate and incubate for 1 hour at room temperature in the dark. Luminescence counts are read on a BMG Fluostar Optima reader according to manufacturers instructions.
as §3, §4

The IC50 is the concentration needed to halve the response being measured. Low readings indicate inhibition by little substance, high ones a need for much substance. In the case of `NC(=O)Nc1ccc(-c2cc(NCCc3c(F)cc(Br)cc3F)ncn2)cc1` [Example 265, (4-{6-[2-(4-Bromo-2,6-difluoro-phenyl)-ethylamino]-pyrimidin-4-yl}-phenyl)-urea], the 50% inhibitory concentration (IC50) came out at 242 nM against PTGER2 (EP2) and 452 nM against PTRGER4 (EP4).

For the compound `CCc1cc(-c2cc(NCCc3c(F)cc(Br)cc3F)ncn2)cc(C)c1CC(=O)O` [Example 257, (4-{6-[2-(4-Bromo-2,6-difluoro-phenyl)-ethylamino]-pyrimidin-4-yl}-2-ethyl-6-methyl-phenyl)-acetic acid], the IC50 at PTGER2 (EP2) stood at 212 nM; against PTRGER4 (EP4), 239 nM.

Regarding `CCOc1c(C(=O)O)ccc(-c2cc(NCCc3c(F)cc(Br)cc3F)ncn2)c1F` [Example 274, 4-{6-[2-(4-Bromo-2,6-difluoro-phenyl)-ethylamino]-pyrimidin-4-yl}-2-ethoxy-3-fluoro-benzoic acid], the half-maximal inhibitory concentration (IC50) against PTGER2 (EP2) was found to be 160 nM; against PTRGER4 (EP4) it was 646 nM.

As for `Fc1cc(Br)cc(F)c1CCNc1cc(-c2ccc3cc[nH]c3c2)ncn1` [Example 170, [2-(4-Bromo-2,6-difluoro-phenyl)-ethyl]-[6-(1H-indol-6yl)-pyrimidin-4-yl]amine], the figures for the IC50 at PTGER2 (EP2) and against PTRGER4 (EP4) were 424 nM and 746 nM, respectively.

Take `O=C1Cc2cc(-c3cc(NCCc4c(F)cc(Br)cc4F)ncn3)ccc2N1` [Example 312, 5-{6-[2-(4-Bromo-2,6-difluoro-phenyl)-ethylamino]-pyrimidin-4-yl}-1,3-dihydro-indol-2-one]: the IC50 came to 175 nM against PTGER2 (EP2) and 703 nM at PTRGER4 (EP4).

With `CCOc1cc(-c2cc(NCCc3cc(C)c(C)cc3OC)ncn2)cc(F)c1CC(=O)O` [Example 193, (2-Ethoxy-6-fluoro-4-{6-[2-(2-methoxy-4,5-dimethyl-phenyl)-ethylamino]-pyrimidin-4-yl}-phenyl)-acetic acid], the figures for the 50% inhibitory concentration (IC50) on PTGER2 (EP2) and on PTRGER4 (EP4) were 797 nM and 159 nM, respectively.

Take `CCNC(=O)c1ccc(-c2cc(NCCc3c(F)cc(Br)cc3F)ncn2)cc1OCC` [Example 299, 4-{6-[2-(4-Bromo-2,6-difluoro-phenyl)-ethylamino]-pyrimidin-4-yl}-2-ethoxy-N-ethyl-benzamide]: the IC50 on PTGER2 (EP2) came out at 145 nM; against PTRGER4 (EP4), 255 nM.

`CCCOc1cc(-c2cc(NCCc3c(C)cc(C)cc3OC)ncn2)ccc1CC(=O)O` [Example 204, (4-{6-[2-(2-Methoxy-4,6-dimethyl-phenyl)-ethylamino]-pyrimidin-4-yl}-2-propoxy-phenyl)-acetic acid]: the half-maximal inhibitory concentration (IC50) turned out to be 433 nM against PTGER2 (EP2) and 699 nM on PTRGER4 (EP4).

With `CSc1cc(-c2cc(NCCc3ccc(C(F)(F)F)cc3OC(F)F)ncn2)ccc1C(=O)O` [Example 218, 4-{6-[2-(2-Difluoromethoxy-4-trifluoromethyl-phenyl)-ethylamino]-pyrimidin-4-yl}-2-methylsulfanyl-benzoic acid], the 50% inhibitory concentration (IC50) is 690 nM at PTGER2 (EP2) and 917 nM against PTRGER4 (EP4).

For `CCOc1cc(-c2cc(NCCc3ccc(C(F)(F)F)cc3OC)ncn2)ccc1C(=O)O` [Example 205, 2-Ethoxy-4-{6-[2-(2-methoxy-4-trifluoromethyl-phenyl)-ethylamino]-pyrimidin-4-yl}-benzoic acid], the IC50 against PTGER2 (EP2) came to 966 nM; on PTRGER4 (EP4), 681 nM.

Regarding `COc1cc(C)c(C)cc1CCNc1cc(-c2ccc(C(=O)O)c(OC3CCC3)c2)ncn1` [Example 188, 2-Cyclobutoxy-4-{6-[2-(2-methoxy-4,5-dimethyl-phenyl)-ethylamino]-pyrimidin-4-yl}-benzoic acid], the results for the IC50 against PTGER2 (EP2) and against PTRGER4 (EP4) were 179 nM and 117 nM, respectively.

On to `O=c1c(O)c(-c2ccc(-c3cc(NCCc4c(F)cc(Br)cc4F)ncn3)cc2)c1=O` [Example 243, 3-(4-{6-[2-(4-Bromo-2,6-difluoro-phenyl)-ethylamino]-pyrimidin-4-yl}-phenyl)-4-hydroxy-cyclobut-3-ene-1,2-dione], for which the results for the IC50 at PTGER2 (EP2) and against PTRGER4 (EP4) were 41 nM and 61 nM, respectively.

Turning to `CCCc1cc(-c2cc(NCCc3c(F)cc(Br)cc3F)ncn2)ccc1Cc1noc(=O)[nH]1` [Example 284, 3-(4-{6-[2-(4-Bromo-2,6-difluoro-phenyl)-ethylamino]-pyrimidin-4-yl}-2-propyl-benzyl)-[1,2,4]oxadiazol-5(4H)-one], the values for the IC50 against PTGER2 (EP2) and at PTRGER4 (EP4) were 295 nM and 199 nM, respectively.

Consider `CCc1cc(-c2cc(NCCc3c(F)cc(Br)cc3F)ncn2)cc(Cl)c1CC(=O)O` [Example 253, (4-{6-[2-(4-Bromo-2,6-difluoro-phenyl)-ethylamino]-pyrimidin-4-yl}-2-chloro-6-ethyl-phenyl)-acetic acid], for which the figures for the concentration for half-maximal inhibition (IC50) on PTGER2 (EP2) and at PTRGER4 (EP4) were 191 nM and 170 nM, respectively.

For `Cc1cc(-c2cc(NCCc3c(F)cc(Br)cc3F)ncn2)ccc1CC(=O)O` [Example 254, (4-{6-[2-(4-Bromo-2,6-difluoro-phenyl)-ethylamino]-pyrimidin-4-yl}-2-methyl-phenyl)-acetic acid], the half-maximal inhibitory concentration (IC50) stood at 753 nM at PTGER2 (EP2) and 880 nM against PTRGER4 (EP4).

Turning to `CCCc1cc(-c2cc(NCCc3ccc(OC(F)F)cc3OC)ncn2)ccc1C(=O)O` [Example 222, 4-{6-[2-(4-Difluoromethoxy-2-methoxy-phenyl)-ethylamino]-pyrimidin-4-yl}-2-propyl-benzoic acid], the 50% inhibitory concentration (IC50) is 231 nM against PTGER2 (EP2) and 286 nM against PTRGER4 (EP4).

For `CCOc1c(CC(=O)O)ccc(-c2cc(NCCc3c(F)cc(Br)cc3F)ncn2)c1F` [Example 175, (4-{6-[2-(4-Bromo-2,6-difluoro-phenyl)-ethylamino]-pyrimidin-4-yl}-2-ethoxy-3-fluoro-phenyl)-acetic acid], the 50% inhibitory concentration (IC50) against PTGER2 (EP2) stood at 258 nM; against PTRGER4 (EP4) it was 461 nM.

Take `Cc1cc(-c2cc(NCCc3c(F)cc(Br)cc3F)ncn2)cc(F)c1CC(=O)O` [Example 256, (4-{6-[2-(4-Bromo-2,6-difluoro-phenyl)-ethylamino]-pyrimidin-4-yl}-2-fluoro-6-methyl-phenyl)-acetic acid]: the half-maximal inhibitory concentration (IC50) stood at 574 nM on PTGER2 (EP2) and 584 nM at PTRGER4 (EP4).

For the compound `CCOc1cc(-c2cc(NCCc3c(F)cc(Br)cc3F)ncn2)ccc1C(=O)NCC(C)(C)O` [Example 302, 4-{6-[2-(4-Bromo-2,6-difluoro-phenyl)-ethylamino]-pyrimidin-4-yl}-2-ethoxy-N-(2-hydroxy-2-methyl-propyl)-benzamide], the figures for the concentration for half-maximal inhibition (IC50) against PTGER2 (EP2) and against PTRGER4 (EP4) were 121 nM and 565 nM, respectively.

In the case of `COc1cc(C(N)=O)ccc1-c1cc(NCCc2c(F)cc(Br)cc2F)ncn1` [Example 292, 4-{6-[2-(4-Bromo-2,6-difluoro-phenyl)-ethylamino]-pyrimidin-4-yl}-3-methoxy-benzamide], the IC50 against PTGER2 (EP2) turned out to be 100 nM; against PTRGER4 (EP4), 893 nM.

Consider `CCOc1cc(-c2cc(NCCc3cc(C)c(C(F)F)cc3OC)ncn2)ccc1C(=O)O` [Example 199, 4-{6-[2-(4-Difluoromethyl-2-methoxy-5-methyl-phenyl)-ethylamino]-pyrimidin-4-yl}-2-ethoxy-benzoic acid], for which the concentration for half-maximal inhibition (IC50) against PTGER2 (EP2) came to 163 nM; against PTRGER4 (EP4) it was 283 nM.

As to `CN1C(=O)NCc2ccc(-c3cc(NCCc4c(F)cc(Br)cc4F)ncn3)cc21` [Example 262, 7-{6-[2-(4-Bromo-2,6-difluoro-phenyl)-ethylamino]-pyrimidin-4-yl}-1-methyl-3,4-dihydro-1H-quinazolin-2-one], the IC50 amounted to 88 nM against PTGER2 (EP2) and 149 nM on PTRGER4 (EP4).

Take `CCCc1cc(-c2cc(NCCc3cc(Cl)c(C(F)(F)F)cc3OC)ncn2)ccc1C(=O)O` [Example 197, 4-{6-[2-(5-Chloro-2-methoxy-4-trifluoromethyl-phenyl)-ethylamino]-pyrimidin-4-yl}-2-propyl-benzoic acid]: the IC50 is 539 nM on PTGER2 (EP2) and 163 nM against PTRGER4 (EP4).

On to `COc1cc(C(F)(F)F)ccc1CCNc1cc(-c2ccc(C(=O)O)c(SC)c2)ncn1` [Example 206, 4-{6-[2-(2-Methoxy-4-trifluoromethyl-phenyl)-ethylamino]-pyrimidin-4-yl}-2-methylsulfanyl-benzoic acid], for which the IC50 against PTGER2 (EP2) came out at 315 nM; against PTRGER4 (EP4) it was 372 nM.

With `CCOc1cc(-c2cc(NCCc3ccc(OC(F)F)cc3OC)ncn2)sc1C(=O)O` [Example 224, 5-{6-[2-(4-Difluoromethoxy-2-methoxy-phenyl)-ethylamino]-pyrimidin-4-yl}-3-ethoxy-thiophene-2-carboxylic acid], the IC50 against PTGER2 (EP2) was determined as 37 nM; against PTRGER4 (EP4), 23 nM.

As to `CCCn1cc(-c2cc(NCCc3c(F)cc(Br)cc3F)ncn2)cc1C(=O)O` [Example 270, 4-{6-[2-(4-Bromo-2,6-difluoro-phenyl)-ethylamino]-pyrimidin-4-yl}-1-propyl-1H-pyrrole-2-carboxylic acid], the half-inhibitory concentration (IC50) against PTGER2 (EP2) is 316 nM; against PTRGER4 (EP4), 700 nM.

As for `CCOc1cc(-c2cc(NCCc3c(F)cc(Br)cc3F)ncn2)ccc1C(=O)NCCOC` [Example 301, 4-{6-[2-(4-Bromo-2,6-difluoro-phenyl)-ethylamino]-pyrimidin-4-yl}-2-ethoxy-N-(2-methoxy-ethyl)-benzamide], the results for the half-inhibitory concentration (IC50) at PTGER2 (EP2) and against PTRGER4 (EP4) were 118 nM and 640 nM, respectively.

In the case of `CCOc1cc(-c2cc(NCCc3c(F)cccc3OC)ncn2)sc1C(=O)O` [Example 177, 3-Ethoxy-5-{6-[2-(2-fluoro-6-methoxy-phenyl)-ethylamino]-pyrimidin-4-yl}-thiophene-2-carboxylic acid], the IC50 on PTGER2 (EP2) was found to be 126 nM; against PTRGER4 (EP4), 343 nM.

As for `CCOc1cc(-c2cc(NCCc3c(F)cc(OC)cc3F)ncn2)ccc1C(=O)O` [Example 228, 4-{6-[2-(2,6-Difluoro-4-methoxy-phenyl)-ethylamino]-pyrimidin-4-yl}-2-ethoxy-benzoic acid], the half-inhibitory concentration (IC50) against PTGER2 (EP2) turned out to be 502 nM; against PTRGER4 (EP4) it was 777 nM.

Turning to `Fc1cc(Br)cc(F)c1CCNc1cc(-c2ccc3nccn3c2)ncn1` [Example 309, [2-(4-Bromo-2,6-difluoro-phenyl)-ethyl]-(6-imidazo[1,2-a]pyridin-6-yl-pyrimidin-4-yl)-amine], the IC50 at PTGER2 (EP2) was found to be 352 nM; against PTRGER4 (EP4) it was 875 nM.

As for `CCOc1cc(-c2cc(NCCc3c(F)cccc3F)ncn2)ccc1-c1noc(=O)[nH]1` [Example 233, 3-(4-(64(2,6-Difluorophenethypamino)pyrimidin-4-yl)-2-ethoxyphenyl)-[1,2,4]oxadiazol-5(4H)-one], the IC50 is 222 nM on PTGER2 (EP2) and 398 nM against PTRGER4 (EP4).
